The source of these data is patent publication US10434116B2 (priority 2014, dated 2019).

In data set [1] the test system is MERS-CoV. The data set can be described thus: microbe, parasite or virus in culture. It counts as cell-based, MERS-CoV strain Hu/Jordan-N3/2012. To be noted: for EC50: read-out: EC50 against MERS-CoV.
The subject of another data set is MERS-CoV (Jordan). Nature of the data set: microbe, parasite or virus in culture. It counts as cell-based. To be noted: Middle East respiratory syndrome-related coronavirus, Vero C1008, read-out: EC50 for MERS-CoV (virus production, TCID50).
The test system of data set [2] is SARS-CoV. The data set can be described thus: microbe, parasite or virus in culture. It counts as cell-based. To be noted: Severe acute respiratory syndrome coronavirus, Vero C1008, read-out: EC50 for SARS-CoV (virus production, TCID50).
In data set [3] the test system is MERS-CoV. The class given is cell-based.
Data set [4] relates to SARS-CoV. The class given is cell-based.
The next data set concerns MERS-S pseudoparticles. The class given is cell-based, MERS-CoV.
Data set [5] deals with MERS-CoV. The data set can be described thus: microbe, parasite or virus in culture. The class given is cell-based. To be noted: Middle East respiratory syndrome-related coronavirus, Vero C1008, read-out: IC50 value for MERS-CoV (TCID50 assay).
Data set [6] has as its system SARS-CoV. The data set can be described thus: microbe, parasite or virus in culture. It counts as cell-based. To be noted: Severe acute respiratory syndrome coronavirus, Vero C1008, read-out: IC50 value for SARS-CoV (TCID50 assay).
For data set [7], the system named is MERS-CoV. To be noted: cited from earlier work.
In data set [8] the test system is SARS-CoV. To be noted: cited from earlier work.
In data set [9] the test system is SARS-CoV. To be noted: mouse, in vivo; cited from earlier work.
[10] abbreviates: Middle East respiratory syndrome-related coronavirus, Vero C1008, 48 h, read-out: MERS-CoV IC50.
Where [11] appears, read: Middle East respiratory syndrome-related coronavirus, Vero C1008, 48 h, read-out: IC50 against MERS-CoV.
Where [12] appears, read: Middle East respiratory syndrome-related coronavirus, Vero.

The structures appear in SMILES notation. “Also recorded” adds a separate entry of the source. Structures can show the parent of a compound that is named as a salt. Where two headings read alike, the source gives them in different places.

In the case of `CC(CN1c2ccccc2Sc2ccccc21)N(C)C` (centres unmarked) [Promethazine hydrochloride], the IC50 in the data set with MERS-CoV [1] (setting [10]) was found to be 11.8 µM.

With `CN(C)CCCN1c2ccccc2Sc2ccc(C(F)(F)F)cc21` [Triflupromazine hydrochloride], the IC50 in the data set on MERS-CoV [1] (setting [11]) was 5.76 to 12.9 µM; in the data set on MERS-CoV [1] (setting [10]) it was 5.76 µM; in the data set with MERS-CoV [1] (read-out: IC50 against MERS-CoV, hydrochloride), 5.76 µM. In addition, the toxicity entry in the data set on Vero E6 cells is on record as “low toxicity”.

For `CN(C)CCCN1c2ccccc2Sc2ccc(Cl)cc21` [Chlorpromazine hydrochloride], the IC50 was 5.76 to 12.9 µM in the data set with MERS-CoV [1] (setting [11]) and 9.51 µM in the data set on MERS-CoV [1] (setting [10]). The concentration giving a half-maximal response (EC50) with MERS-CoV (Jordan) stood at 19.4 µM; with SARS-CoV [2], 4.86 µM. Also, the toxicity result with Vero E6 cells was “low toxicity”.

Consider `CC(C)N1CCN(c2ccc(OCC3COC(Cn4cncn4)(c4ccc(Cl)cc4Cl)O3)cc2)CC1` (centres unmarked) [Terconazole], for which the IC50 in the data set with MERS-CoV [1] (setting [10]) is 12.2 µM.

Regarding `CCN(CC)Cc1cc(Nc2ccnc3cc(Cl)ccc23)ccc1O`, the IC50 in the data set with MERS-CoV [1] (setting [10]) was 6.21 µM.

As for `OC(c1cc(C(F)(F)F)nc2c(C(F)(F)F)cccc12)C1CCCCN1` (centres unmarked) [Mefloquine], in the data set on MERS-CoV [1] (setting [10]), the 50% inhibitory concentration (IC50) was 7.42 µM.

Take `CN1CCN(CC/C=C2/c3ccccc3Sc3ccc(S(=O)(=O)N(C)C)cc32)CC1` [Thiothixene]: the IC50 with MERS-CoV [1] (setting [10]) is 9.3 µM.

As for `COc1ccc(C[C@H]2NC[C@H](O)[C@H]2OC(C)=O)cc1` [Anisomycin], the half-inhibitory concentration (IC50) with MERS-CoV [1] (read-out: MERS-CoV IC50) is 0.003 µM.

For `Cc1ccc(NC(=O)c2ccc(CN3CCN(C)CC3)cc2)cc1Nc1nccc(-c2cccnc2)n1` [Imatinib mesylate], the “inhibition of virus growth, MERS-CoV” value with MERS-CoV [3] is “significant inhibition of virus growth; also recorded: little inhibition of either virus”. Also, the “inhibition of virus growth, SARS-CoV” value in the data set on SARS-CoV [4] was “significant inhibition of virus growth; also recorded: little inhibition of either virus”. Further, the “CCF2 signal (fluorescence)” value in the data set on MERS-S pseudoparticles is 7.8 % of control. Also, the toxicity result in the data set on Vero E6 cells is reported as “low toxicity”.

Consider `CC[C@H]1CN2CCc3cc(OC)c(OC)cc3[C@@H]2C[C@@H]1C[C@H]1NCCc2cc(OC)c(OC)cc21`, for which the IC50 in the data set on MERS-CoV [1] (setting [10]) is 0.014 µM.

Turning to `CCN(CC)CCOc1ccc(C(O)(Cc2ccc(Cl)cc2)c2ccc(C)cc2)cc1` (centres unmarked) [Triparanol], the IC50 with MERS-CoV [1] (setting [10]) came to 5.28 µM.

For the compound `CN(C)CCOC(C)(c1ccccc1)c1ccc(Cl)cc1` (centres unmarked) [Chlorphenoxamine hydrochloride], the 50% inhibitory concentration (IC50) in the data set on MERS-CoV [1] (setting [10]) is 12.6 µM.

Consider `Cc1cn(-c2cc(NC(=O)c3ccc(C)c(Nc4nccc(-c5cccnc5)n4)c3)cc(C(F)(F)F)c2)cn1` [Nilotinib], for which the “activity against MERS-CoV (in words)” value in the data set with MERS-CoV [1] is listed as “does not significantly inhibit MERS-CoV”. In addition, the “maximum inhibition of MERS-CoV” value in the data set with MERS-CoV [1] is recorded as 39%. In addition, the results for the IC50 in the data set on MERS-CoV [1] (setting [10]), in the data set on MERS-CoV [5] and with SARS-CoV [6] were 5.47 µM, 9.53 µM and 2.3 µM, respectively. Also, in the data set with SARS-CoV [4], the “inhibition of virus growth, SARS-CoV” value is on record as “significant inhibition of virus growth; also recorded: little inhibition of either virus”. For the same compound, the toxicity result with Vero E6 cells is recorded as “low toxicity”.

For `CN(C)CCOc1ccc(/C(=C(/CCCl)c2ccccc2)c2ccccc2)cc1` [Toremifene citrate], the IC50 in the data set on MERS-CoV [1] (setting [10]) was 12.9 µM. Further, the EC50 in the data set with MERS-CoV [1] (setting [12]) was determined as 12.9 µM. In addition, in the data set on Vero E6 cells, the toxicity entry is listed as “low toxicity”.

On to `COC(=O)Nc1nc2ccc(C(=O)c3cccs3)cc2[nH]1` [nocodazole], for which the “activity against MERS-CoV (in words)” value in the data set with MERS-CoV [1] is recorded as “high activity”.

As for `CCN(CCO)CCCC(C)Nc1ccnc2cc(Cl)ccc12` (centres unmarked) [Hydroxychloroquine sulfate], the IC50 in the data set with MERS-CoV [1] (setting [10]) was found to be 8.28 µM.

As for `COC(=O)C[C@](O)(CCCC(C)(C)O)C(=O)O[C@@H]1C(OC)=C[C@]23CCCN2CCc2cc4c(cc2[C@H]13)OCO4` [Homoharringtonine], the half-maximal inhibitory concentration (IC50) in the data set with MERS-CoV [1] (setting [10]) stood at 0.0718 µM.

As for `COc1c(C)c2c(c(O)c1C/C=C(\C)CCC(=O)O)C(=O)OC2` [mycophenolic acid (MPA), mycophenolic acid], the “effect against MERS-CoV infection in vitro” value with MERS-CoV [7] is “highly effective”. In addition, the “activity against SARS-CoV infection” value in the data set on SARS-CoV [8] is “little activity”.

For `O=C1NCN(c2ccccc2)C12CCN(CCCC(c1ccc(F)cc1)c1ccc(F)cc1)CC2` [Fluspirilene], in the data set with MERS-CoV [1] (setting [10]), the 50% inhibitory concentration (IC50) came to 7.48 µM.

For `CCSc1ccc2c(c1)N(CCCN1CCN(C)CC1)c1ccccc1S2` [Thiethylperazine maleate], the concentration for half-maximal inhibition (IC50) in the data set with MERS-CoV [1] (setting [10]) was found to be 7.87 µM.

Regarding `Cc1nc(Nc2ncc(C(=O)Nc3c(C)cccc3Cl)s2)cc(N2CCN(CCO)CC2)n1` [dasatinib], the toxicity result in the data set with Vero E6 cells is on record as “low toxicity”.

Take `CCN(CC)CCCC(C)Nc1ccnc2cc(Cl)ccc12` (centres unmarked) [Chloroquine Phosphate]: the IC50 in the data set with MERS-CoV [1] (setting [10]) worked out at 6.28 µM. In addition, the EC50 was 9.51 µM in the data set with MERS-CoV [1] (setting [12]), 6.28 µM with MERS-CoV [1], 18.4 µM in the data set on MERS-CoV (Jordan) and 6.43 µM in the data set on SARS-CoV [2]. For the same compound, in the data set with SARS-CoV [9], the “efficacy in reducing SARS-CoV virus titers” value is “did not show efficacy”.

As to `Nc1ccn([C@@H]2O[C@H](CO)[C@@H](O)C2(F)F)c(=O)n1` [Gemcitabine hydrochloride], in the data set on MERS-CoV [1] (setting [10]), the IC50 turned out to be 1.22 µM. For the same compound, the EC50 with MERS-CoV [1] (setting [12]) amounted to 1.2 µM. The “CCF2 signal (fluorescence)” value in the data set on MERS-S pseudoparticles is 95 % of control. In the data set with Vero E6 cells, the toxicity result is listed as “low toxicity”.

What is called IC50 is the concentration that gives 50% inhibition. A word on the EC50: it is the concentration at which the effect is half-maximal.
